Laboratory results: ChEMBL document CHEMBL3774369, “Tetrahydroisoquinoline Phenols: Selective Estrogen Receptor Downregulator Antagonists with Oral Bioavailability in Rat” (ACS Med Chem Lett, 2016)
pIC50: −log10 of the molar value.

Tests used:
[1] = Percentage unbound in Han Wistar rat plasma by equilibrium dialysis method; assay type: ADME, cell-free
[2] = Intrinsic clearance in human hepatocytes assessed per 10^6 cells; assay type: ADME, cell-based, Hepatocyte; conditions: read-out: CLH
[3] = Intrinsic clearance in Han Wistar rat hepatocytes assessed per 10^6 cells; assay type: ADME, cell-based, Hepatocyte; conditions: read-out: CLH
[4] = Percentage unbound in human plasma by equilibrium dialysis method; assay type: ADME, cell-free
[5] = physchem; conditions: buffer, pH 7.4
[6] = Volume of distribution at steady state in rat at 0.5 mg/kg, iv or 1 mg/kg, po; assay type: ADME, organism-based; conditions: in vivo, read-out: Vdss
[7] = Clearance in rat at 0.5 mg/kg, iv or 1 mg/kg, po; assay type: ADME, organism-based; conditions: in vivo
[8] = Half life in rat at 0.5 mg/kg, iv; assay type: ADME, organism-based; conditions: in vivo
[9] = in vivo; conditions: rat, po, 1 mg/kg
[10] = Half life in rat at 1 mg/kg, po; assay type: ADME, organism-based; conditions: in vivo
[11] = Solubility of compound in aqueous phosphate buffer at pH 7.4 after 24 hrs; assay type: physicochemical
[12] = molecular target: T1, Adenosine receptor A1 (Homo sapiens, UniProt P30542); test: Inhibition of recombinant human adenosine receptor A1 expressed in CHO cells; assay type: cell-based
T1 sequence (P30542 whole entry): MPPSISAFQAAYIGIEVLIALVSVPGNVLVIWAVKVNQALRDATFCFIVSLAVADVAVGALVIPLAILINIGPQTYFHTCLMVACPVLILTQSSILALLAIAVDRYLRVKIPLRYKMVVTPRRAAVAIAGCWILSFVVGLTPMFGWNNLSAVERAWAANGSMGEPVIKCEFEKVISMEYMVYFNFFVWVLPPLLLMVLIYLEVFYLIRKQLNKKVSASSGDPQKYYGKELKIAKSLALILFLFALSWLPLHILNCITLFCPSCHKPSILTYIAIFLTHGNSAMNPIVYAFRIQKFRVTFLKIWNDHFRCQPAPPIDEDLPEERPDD

[13] = molecular target: T2, B2 bradykinin receptor (Homo sapiens, UniProt P30411); test: Inhibition of recombinant human bradykinin receptor 2 expressed in CHO cells; assay type: cell-based
T2 sequence (P30411 whole entry): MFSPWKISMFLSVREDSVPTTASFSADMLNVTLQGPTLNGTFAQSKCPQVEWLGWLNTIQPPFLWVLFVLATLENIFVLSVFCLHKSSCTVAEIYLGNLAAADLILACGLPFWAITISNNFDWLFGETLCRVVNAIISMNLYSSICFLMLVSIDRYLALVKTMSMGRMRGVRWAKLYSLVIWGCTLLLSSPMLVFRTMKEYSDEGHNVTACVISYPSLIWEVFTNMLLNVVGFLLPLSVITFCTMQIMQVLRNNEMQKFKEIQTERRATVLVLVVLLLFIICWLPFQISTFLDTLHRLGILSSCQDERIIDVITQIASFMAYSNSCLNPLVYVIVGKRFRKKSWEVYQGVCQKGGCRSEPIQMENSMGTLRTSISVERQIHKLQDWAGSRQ

[14] = molecular target: Mu-type opioid receptor (Homo sapiens, UniProt P35372); test: Inhibition of human recombinant mu1 opioid receptor expressed in HEK293 cells; assay type: cell-based
[15] = molecular target: Voltage-gated inwardly rectifying potassium channel KCNH2 (Homo sapiens, UniProt Q12809); test: Inhibition of human ERG tail current by plate-based planar patch clamp system
[16] = Inhibition of cytochrome P450 (unknown origin); assay type: ADME, Homo sapiens

Mu-type opioid receptor, sequence (P35372 whole entry): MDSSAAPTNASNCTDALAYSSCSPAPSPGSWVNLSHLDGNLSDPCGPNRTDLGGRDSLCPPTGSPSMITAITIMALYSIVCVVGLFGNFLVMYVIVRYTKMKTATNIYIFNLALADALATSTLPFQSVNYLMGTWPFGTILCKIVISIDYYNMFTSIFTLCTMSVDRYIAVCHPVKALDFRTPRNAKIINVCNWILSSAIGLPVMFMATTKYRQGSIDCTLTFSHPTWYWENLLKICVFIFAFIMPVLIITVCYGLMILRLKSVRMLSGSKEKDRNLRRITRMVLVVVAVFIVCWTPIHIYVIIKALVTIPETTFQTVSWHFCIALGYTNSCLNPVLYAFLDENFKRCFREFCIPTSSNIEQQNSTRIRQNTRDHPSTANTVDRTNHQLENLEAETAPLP
Voltage-gated inwardly rectifying potassium channel KCNH2, sequence (Q12809 whole entry): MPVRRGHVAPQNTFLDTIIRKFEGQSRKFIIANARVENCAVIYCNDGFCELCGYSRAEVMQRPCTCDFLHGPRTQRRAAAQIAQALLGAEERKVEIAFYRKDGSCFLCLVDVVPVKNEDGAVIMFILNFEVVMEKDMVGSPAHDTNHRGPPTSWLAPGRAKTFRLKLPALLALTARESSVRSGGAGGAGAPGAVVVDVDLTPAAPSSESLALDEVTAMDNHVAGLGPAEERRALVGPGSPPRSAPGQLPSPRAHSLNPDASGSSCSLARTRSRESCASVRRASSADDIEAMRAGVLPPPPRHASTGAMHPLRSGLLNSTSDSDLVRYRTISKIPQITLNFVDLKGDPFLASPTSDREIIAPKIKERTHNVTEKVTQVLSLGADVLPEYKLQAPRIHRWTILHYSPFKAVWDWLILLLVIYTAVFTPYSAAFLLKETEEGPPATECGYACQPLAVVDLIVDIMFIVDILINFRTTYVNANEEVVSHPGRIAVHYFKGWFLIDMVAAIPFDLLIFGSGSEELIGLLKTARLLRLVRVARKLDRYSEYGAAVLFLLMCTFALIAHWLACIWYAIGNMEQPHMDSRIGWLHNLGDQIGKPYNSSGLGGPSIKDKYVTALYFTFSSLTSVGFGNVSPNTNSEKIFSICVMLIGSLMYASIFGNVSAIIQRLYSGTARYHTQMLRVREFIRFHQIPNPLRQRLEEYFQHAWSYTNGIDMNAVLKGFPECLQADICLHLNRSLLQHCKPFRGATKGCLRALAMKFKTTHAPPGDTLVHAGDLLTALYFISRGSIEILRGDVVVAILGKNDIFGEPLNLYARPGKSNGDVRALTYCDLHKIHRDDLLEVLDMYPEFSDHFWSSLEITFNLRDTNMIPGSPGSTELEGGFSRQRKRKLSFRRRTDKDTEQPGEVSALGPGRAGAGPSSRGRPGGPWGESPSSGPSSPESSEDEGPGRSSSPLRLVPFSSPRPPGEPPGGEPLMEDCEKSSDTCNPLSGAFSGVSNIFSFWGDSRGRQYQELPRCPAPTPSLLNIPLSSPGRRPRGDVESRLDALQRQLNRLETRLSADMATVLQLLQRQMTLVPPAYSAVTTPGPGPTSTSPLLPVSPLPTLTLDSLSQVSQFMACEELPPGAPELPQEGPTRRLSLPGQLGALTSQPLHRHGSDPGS

Structure (SMILES)	fraction unbound [1]	hepatocyte CLint [2] [µL/min/1e6 cells]	hepatocyte CLint [3] [µL/min/1e6 cells]	fraction unbound [4]	logD [5]	Vd [6] [L/kg]	clearance [7] [mL/min/kg]	half-life [8] [h]	bioavailability [9] [%]	half-life [10] [h]	solubility at 24 h [11] [µM]	pIC50 [12]	pIC50 [13]	pIC50 [14]	pIC50 [16]	pIC50 [15]
CC(C)CN1CCc2cc(O)ccc2[C@@]1(C)c1ccc(/C=C/C(=O)O)cc1	0.019	40	33	0.009	2.2	–	–	–	–	–	–	–	–	–	–	–
C[C@H](CF)CN1[C@H](c2c(F)cc(/C=C/C(=O)O)cc2F)c2ccc(O)cc2CC1(C)C	0.005	39	68	0.002	3.1	–	–	–	–	–	–	–	–	–	–	–
C[C@@H]1Cc2cc(O)ccc2[C@@H](c2c(F)cc(/C=C/C(=O)O)cc2F)N1CC(C)(C)F	0.011	78	74	0.023	2.1	–	–	–	–	–	–	–	–	–	–	–
COC[C@H](C)CN1[C@H](c2c(F)cc(/C=C/C(=O)O)cc2F)c2ccc(O)cc2C[C@H]1C	0.053	45	110	0.038	1.6	–	–	–	–	–	–	–	–	–	–	–
O=C(O)/C=C/c1ccc(C2c3ccc(O)cc3CCN2c2ccc(OC(F)(F)F)cc2)cc1 (stereo unspecified)	0.0006	11	20	0.0006	3.7	–	–	–	–	–	–	–	–	–	–	–
COC[C@H](C)CN1[C@H](c2c(F)cc(/C=C/C(=O)O)cc2F)c2ccc(O)cc2CC1(C)C	0.042	88	180	0.01	2	–	–	–	–	–	–	–	–	–	–	–
Cc1cc2c(cc1O)CCN(CC(C)C)[C@@H]2c1ccc(/C=C/C(=O)O)cc1	0.088	17	17	0.091	1.8	–	–	–	–	–	–	–	–	–	–	–
O=C(O)/C=C/c1ccc(C2c3ccc(O)cc3CCN2Cc2ccccc2)cc1 (stereo unspecified)	0.013	150	40	0.007	2.2	–	–	–	–	–	–	–	–	–	–	–
O=C(O)/C=C/c1ccc(C2c3ccc(O)cc3CCN2c2ccccc2)cc1 (stereo unspecified)	0.012	67	87	0.012	2.4	–	–	–	–	–	–	–	–	–	–	–
CC(C)CN1[C@H](c2c(F)cc(/C=C/C(=O)O)cc2F)c2ccc(O)cc2CC1(C)C	0.004	33	34	0.005	2.7	–	–	–	> 70	–	–	–	–	–	–	–
C[C@@H]1Cc2cc(O)ccc2[C@@H](c2ccc(/C=C/C(=O)O)cc2)N1c1ccc(OC(F)(F)F)cc1	0.0002	9	9	0.009	4.2	1.1	4.2	4.2	–	6.7	–	–	–	–	–	–
C[C@H](CF)CN1[C@H](c2c(F)cc(/C=C/C(=O)O)cc2F)c2ccc(O)cc2C[C@H]1C	0.01	170	94	0.009	2.5	–	–	–	–	–	–	–	–	–	–	–

Now from value to molecule, other results behind:

fraction unbound [1]	hepatocyte CLint [2] [µL/min/1e6 cells]	hepatocyte CLint [3] [µL/min/1e6 cells]	fraction unbound [4]	logD [5]	Vd [6] [L/kg]	clearance [7] [mL/min/kg]	half-life [8] [h]	bioavailability [9] [%]	half-life [10] [h]	solubility at 24 h [11] [µM]	pIC50 [12]	pIC50 [13]	pIC50 [14]	pIC50 [16]	Structure (SMILES)	pIC50 [15]
0.025	19	59	0.007	2.3	–	–	–	–	–	–	–	–	–	–	CC(C)(F)CN1[C@H](c2ccc(/C=C/C(=O)O)cc2)c2ccc(O)cc2CC1(C)C	–
0.034	56	43	0.02	2.3	–	–	–	–	–	–	–	–	–	–	COc1ccc2c(c1)C[C@@H](C)N(CC(C)C)[C@@H]2c1ccc(/C=C/C(=O)O)cc1	–
0.087	4	49	0.019	1.4	–	–	–	–	–	–	–	–	–	–	CC(C)CN1CCc2cc(O)ccc2[C@@H]1c1ccc(/C=C/C(=O)O)cc1	–
0.024	100	47	0.026	–	–	–	–	–	–	–	–	–	–	–	C[C@H](CF)CN1[C@H](c2ccc(/C=C/C(=O)O)cc2)c2ccc(O)cc2C[C@H]1C	–
0.063	9	32	0.024	1.6	–	–	–	–	–	–	–	–	–	–	Cc1c(O)ccc2c1CCN(CC(C)C)[C@@H]2c1ccc(/C=C/C(=O)O)cc1	–
0.016	45	24	0.021	2.5	–	–	–	–	–	–	–	–	–	–	CC(C)CN1[C@H](c2ccc(/C=C/C(=O)O)cc2)c2ccccc2C[C@H]1C	–
0.013	18	15	0.015	2.7	1.6	19	2.4	33	5.6	–	–	–	–	–	CC(C)CN1[C@H](C)Cc2cc(O)ccc2[C@@]1(C)c1ccc(/C=C/C(=O)O)cc1	–
0.12	7	27	0.16	1	0.6	63	0.2	3	1.9	–	–	–	–	–	COC[C@H](C)CN1[C@H](c2ccc(/C=C/C(=O)O)cc2)c2ccc(O)cc2C[C@H]1C	–
0.075	33	22	0.07	1.7	0.6	49	0.2	86	3.9	> 1500	4.54	4.70	4.92	< 4.52	CC(C)CN1[C@H](c2ccc(/C=C/C(=O)O)cc2)c2ccc(O)cc2C[C@H]1C	< 4.52
0.11	6	7	0.035	1.5	5.9	21	5.8	66	7.4	–	–	–	–	–	CC(C)CN1[C@H](c2ccc(/C=C/C(=O)O)cc2)c2ccc(O)cc2CC1(C)C	–
0.037	38	38	0.063	1.3	0.5	44	0.2	26	3	–	–	–	–	–	CC(C)CN1CCc2cc(O)ccc2[C@H]1c1ccc(/C=C/C(=O)O)cc1	–
0.028	14	24	0.01	1.8	–	–	–	> 70	–	–	–	–	–	–	C[C@H](CF)CN1[C@H](c2ccc(/C=C/C(=O)O)cc2)c2ccc(O)cc2CC1(C)C	–
